ChEMBL document CHEMBL1955797, “Discovery of vinylcycloalkyl-substituted benzimidazole TRPM8 antagonists effective in the treatment of cold allodynia” (Bioorg Med Chem Lett, 2012)
The source made the active and inactive calls. The rule behind the calls is not given here.

What was measured:
[1] = target: Transient receptor potential M8 protein (Canis lupus familiaris) (UniProt Q1A7N1); assay: Antagonist activity at dog TRPM8 expressed in human HEK293 cells assessed as inhibition of icilin-induced calcium flux at 0.2 uM by FLIPR assay; format: functional, cell-based
Transient receptor potential M8 protein (Canis lupus familiaris), sequence (Q1A7N1 1-1104): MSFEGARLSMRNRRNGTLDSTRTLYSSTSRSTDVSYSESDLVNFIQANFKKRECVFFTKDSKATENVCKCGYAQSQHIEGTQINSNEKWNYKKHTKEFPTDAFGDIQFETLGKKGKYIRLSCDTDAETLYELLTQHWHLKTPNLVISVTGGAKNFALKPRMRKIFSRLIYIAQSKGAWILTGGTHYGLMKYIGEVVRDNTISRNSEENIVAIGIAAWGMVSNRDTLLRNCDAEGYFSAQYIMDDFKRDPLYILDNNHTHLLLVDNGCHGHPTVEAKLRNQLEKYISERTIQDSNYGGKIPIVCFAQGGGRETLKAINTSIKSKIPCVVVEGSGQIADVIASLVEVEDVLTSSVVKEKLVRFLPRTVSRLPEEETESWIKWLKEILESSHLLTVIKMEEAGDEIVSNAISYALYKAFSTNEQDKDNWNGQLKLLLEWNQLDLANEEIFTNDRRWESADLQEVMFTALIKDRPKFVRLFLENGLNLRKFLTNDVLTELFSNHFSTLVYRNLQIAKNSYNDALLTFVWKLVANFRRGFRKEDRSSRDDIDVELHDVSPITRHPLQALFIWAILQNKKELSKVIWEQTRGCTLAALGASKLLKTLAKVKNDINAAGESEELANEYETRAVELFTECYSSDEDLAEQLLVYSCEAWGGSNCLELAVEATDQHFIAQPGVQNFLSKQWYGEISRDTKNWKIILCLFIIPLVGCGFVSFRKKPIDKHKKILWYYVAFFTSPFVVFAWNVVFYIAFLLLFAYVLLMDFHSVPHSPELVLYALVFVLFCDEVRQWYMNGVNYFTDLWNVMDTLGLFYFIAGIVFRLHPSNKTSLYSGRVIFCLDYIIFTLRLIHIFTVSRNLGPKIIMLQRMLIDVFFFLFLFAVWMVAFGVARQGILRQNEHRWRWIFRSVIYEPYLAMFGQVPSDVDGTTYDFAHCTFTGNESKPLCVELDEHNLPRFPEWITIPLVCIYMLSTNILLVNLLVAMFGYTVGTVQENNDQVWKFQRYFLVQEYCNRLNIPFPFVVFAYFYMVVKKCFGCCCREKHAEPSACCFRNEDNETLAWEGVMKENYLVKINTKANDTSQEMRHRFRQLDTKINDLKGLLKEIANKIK

[2] = Metabolic stability in dog liver microsomes assessed as compound remaining after 10 mins; format: ADME, Canis lupus familiaris, Microsome; details: read-out: Stability
[3] = test system: Rattus norvegicus; assay: Inhibition of icilin-induced wet dog shakes behavior in po dosed rat administered 60 mins prior to icilin challenge; format: functional
[4] = target: Cytochrome P450 2C9 (Homo sapiens, UniProt P11712); assay: Inhibition of recombinant CYP2C9; format: ADME
Cytochrome P450 2C9, sequence (P11712 whole entry): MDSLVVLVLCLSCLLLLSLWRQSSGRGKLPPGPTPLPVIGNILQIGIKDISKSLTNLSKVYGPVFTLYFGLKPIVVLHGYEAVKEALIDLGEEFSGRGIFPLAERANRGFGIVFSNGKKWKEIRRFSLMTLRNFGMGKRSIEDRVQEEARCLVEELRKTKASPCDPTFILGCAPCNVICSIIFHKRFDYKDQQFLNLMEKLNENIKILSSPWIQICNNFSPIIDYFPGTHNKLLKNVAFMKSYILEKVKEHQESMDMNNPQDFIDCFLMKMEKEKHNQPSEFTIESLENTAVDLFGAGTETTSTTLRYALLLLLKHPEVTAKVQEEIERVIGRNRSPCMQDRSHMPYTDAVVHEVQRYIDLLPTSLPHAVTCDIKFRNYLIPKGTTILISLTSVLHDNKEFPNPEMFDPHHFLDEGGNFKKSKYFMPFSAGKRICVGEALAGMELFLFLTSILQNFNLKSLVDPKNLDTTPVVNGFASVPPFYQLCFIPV

[5] = target: Transient receptor potential cation channel subfamily M member 8 (Homo sapiens, UniProt Q7Z2W7); assay: Antagonist activity at human TRPM8 by calcium flux assay; format: functional
Transient receptor potential cation channel subfamily M member 8 (Homo sapiens, UniProt Q7Z2W7), sequence (Q7Z2W7 whole entry): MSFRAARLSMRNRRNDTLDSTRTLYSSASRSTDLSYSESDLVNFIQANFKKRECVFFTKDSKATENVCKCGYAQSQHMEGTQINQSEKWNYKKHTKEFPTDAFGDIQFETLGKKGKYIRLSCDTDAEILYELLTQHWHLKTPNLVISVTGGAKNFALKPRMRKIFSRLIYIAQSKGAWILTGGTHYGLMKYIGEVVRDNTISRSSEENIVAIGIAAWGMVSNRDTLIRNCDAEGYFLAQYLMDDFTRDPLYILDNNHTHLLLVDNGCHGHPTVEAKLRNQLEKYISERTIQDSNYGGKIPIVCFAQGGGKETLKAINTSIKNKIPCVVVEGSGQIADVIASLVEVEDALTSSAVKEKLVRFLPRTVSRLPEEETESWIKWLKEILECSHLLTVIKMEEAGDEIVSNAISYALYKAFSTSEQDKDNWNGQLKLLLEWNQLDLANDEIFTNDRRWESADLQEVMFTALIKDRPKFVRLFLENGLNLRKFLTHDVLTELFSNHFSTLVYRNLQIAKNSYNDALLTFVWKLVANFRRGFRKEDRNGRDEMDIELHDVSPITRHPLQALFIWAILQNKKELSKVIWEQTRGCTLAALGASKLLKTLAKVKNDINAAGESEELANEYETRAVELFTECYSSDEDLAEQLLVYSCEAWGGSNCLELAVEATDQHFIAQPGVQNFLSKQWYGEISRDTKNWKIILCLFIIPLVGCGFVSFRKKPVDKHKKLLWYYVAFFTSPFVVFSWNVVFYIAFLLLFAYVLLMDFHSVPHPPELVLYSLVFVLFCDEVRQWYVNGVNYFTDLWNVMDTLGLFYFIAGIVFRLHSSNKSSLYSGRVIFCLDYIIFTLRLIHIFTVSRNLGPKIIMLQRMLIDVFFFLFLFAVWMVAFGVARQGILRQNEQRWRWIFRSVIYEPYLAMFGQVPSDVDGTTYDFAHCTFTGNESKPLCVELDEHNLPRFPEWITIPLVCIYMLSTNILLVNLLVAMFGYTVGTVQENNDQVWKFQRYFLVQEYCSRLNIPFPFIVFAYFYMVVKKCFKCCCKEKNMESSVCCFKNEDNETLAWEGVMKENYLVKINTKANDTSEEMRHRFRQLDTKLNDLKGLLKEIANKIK

[6] = target: T1, Cytochrome P450 3A4 (Homo sapiens, UniProt P08684); assay: Inhibition of recombinant CYP3A4; format: ADME
T1 sequence (P08684 whole entry): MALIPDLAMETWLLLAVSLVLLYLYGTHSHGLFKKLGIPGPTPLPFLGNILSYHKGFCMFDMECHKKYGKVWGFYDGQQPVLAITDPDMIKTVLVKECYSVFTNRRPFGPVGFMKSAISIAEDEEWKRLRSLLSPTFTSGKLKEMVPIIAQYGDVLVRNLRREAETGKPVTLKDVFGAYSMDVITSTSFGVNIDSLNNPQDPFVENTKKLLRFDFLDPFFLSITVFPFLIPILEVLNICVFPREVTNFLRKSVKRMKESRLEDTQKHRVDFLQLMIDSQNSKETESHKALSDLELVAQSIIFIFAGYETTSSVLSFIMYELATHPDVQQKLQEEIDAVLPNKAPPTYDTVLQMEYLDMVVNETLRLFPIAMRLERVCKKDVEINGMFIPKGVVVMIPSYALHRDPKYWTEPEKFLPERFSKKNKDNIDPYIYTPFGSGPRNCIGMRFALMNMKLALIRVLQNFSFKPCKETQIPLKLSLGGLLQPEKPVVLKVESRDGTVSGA

[7] = Metabolic stability in rat liver microsomes assessed as compound remaining after 10 mins; format: ADME, Microsome; details: read-out: Stability
[8] = target: T2, Cytochrome P450 2C19 (Homo sapiens, UniProt P33261); assay: Inhibition of recombinant CYP2C19; format: ADME
T2 sequence (P33261 whole entry): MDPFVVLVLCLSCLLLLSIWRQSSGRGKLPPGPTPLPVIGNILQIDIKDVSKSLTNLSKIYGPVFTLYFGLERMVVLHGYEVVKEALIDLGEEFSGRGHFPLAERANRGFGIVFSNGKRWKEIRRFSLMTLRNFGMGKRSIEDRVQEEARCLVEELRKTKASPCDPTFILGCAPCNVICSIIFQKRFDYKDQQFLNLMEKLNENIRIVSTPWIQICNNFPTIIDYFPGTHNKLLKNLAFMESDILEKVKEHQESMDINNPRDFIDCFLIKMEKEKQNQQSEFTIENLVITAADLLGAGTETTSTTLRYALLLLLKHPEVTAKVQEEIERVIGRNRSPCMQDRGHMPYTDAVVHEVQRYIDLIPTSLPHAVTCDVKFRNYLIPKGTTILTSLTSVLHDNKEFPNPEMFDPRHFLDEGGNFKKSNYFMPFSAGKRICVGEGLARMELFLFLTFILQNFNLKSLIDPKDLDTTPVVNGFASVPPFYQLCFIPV

[9] = Oral bioavailability in rat at 10 mg/kg; format: ADME, organism-based; details: in vivo
[10] = Tmax in rat at 10 mg/kg; format: ADME, organism-based; parameters: dose 10 mg/kg; details: in vivo
[11] = Clearance in rat at 10 mg/kg; format: ADME, organism-based; parameters: dose 10 mg/kg; details: in vivo
[12] = target: Transient receptor potential cation channel subfamily M member 8 (Rattus norvegicus, UniProt Q8R455); assay: Antagonist activity at rat TRPM8 by calcium flux assay; format: functional
[13] = test system: Rattus norvegicus; assay: Antiallodynic activity against chronic constriction injury cold allodynia in rat assessed as inhibition of cold hypersensitivity at 10 mg/kg, po measured after 4 hrs post dosing; format: functional, organism-based; parameters: dose 10 mg/kg
[14] = test system: Rattus norvegicus; assay: Antiallodynic activity against chronic constriction injury cold allodynia in rat assessed as inhibition of cold hypersensitivity at 10 mg/kg, po measured after 2 to 3 hrs post dosing; format: functional
[15] = Volume of distribution at steady state in rat at 10 mg/kg; format: ADME, organism-based; parameters: dose 10 mg/kg; details: in vivo, read-out: Vdss
[16] = target: T3, Cytochrome P450 1A2 (Homo sapiens, UniProt P05177); assay: Inhibition of recombinant CYP1A2; format: ADME
T3 sequence (P05177 whole entry): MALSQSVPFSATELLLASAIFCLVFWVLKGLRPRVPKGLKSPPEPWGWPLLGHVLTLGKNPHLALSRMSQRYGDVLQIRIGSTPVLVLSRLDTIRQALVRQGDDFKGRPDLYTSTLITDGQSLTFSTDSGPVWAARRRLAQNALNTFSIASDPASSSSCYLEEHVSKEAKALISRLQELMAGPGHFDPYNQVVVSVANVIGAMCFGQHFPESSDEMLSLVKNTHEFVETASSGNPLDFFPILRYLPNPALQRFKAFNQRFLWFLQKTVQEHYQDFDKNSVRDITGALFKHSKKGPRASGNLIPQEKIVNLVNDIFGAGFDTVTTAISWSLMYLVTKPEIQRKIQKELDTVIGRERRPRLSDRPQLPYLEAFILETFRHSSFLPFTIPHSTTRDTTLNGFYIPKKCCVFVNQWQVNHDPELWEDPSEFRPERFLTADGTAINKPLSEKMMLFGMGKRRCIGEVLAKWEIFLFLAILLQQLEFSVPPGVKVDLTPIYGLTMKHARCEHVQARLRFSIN

[17] = target: CYP2C9 (Homo sapiens, UniProt P11712); assay: Inhibition of CYP2C9 in human liver microsomes at 3.3 uM; format: ADME, Microsome
CYP2C9, sequence (P11712 whole entry): as the sequence (P11712 whole entry) above

[18] = target: Transient receptor potential M8 protein (Canis lupus familiaris, UniProt Q1A7N1); assay: Antagonist activity at dog TRPM8 expressed in HEK293 cells assessed as inhibition of icilin-induced calcium flux by FLIPR assay; format: functional, cell-based
Transient receptor potential M8 protein, sequence (Q1A7N1 whole entry): as the sequence (Q1A7N1 1-1104) above

[19] = target: T1, Cytochrome P450 3A4; assay: Inhibition of CYP3A4 in human liver microsomes; format: ADME, Microsome
[20] = Cmax in rat at 10 mg/kg; format: ADME, organism-based; parameters: dose 10 mg/kg; details: in vivo
[21] = test system: Rattus norvegicus; assay: Antiallodynic activity against chronic constriction injury cold allodynia in rat assessed as inhibition of cold hypersensitivity at 30 mg/kg, po measured after 2 to 3 hrs post dosing; format: functional
[22] = target: Cytochrome P450 2D6 (Homo sapiens, UniProt P10635); assay: Inhibition of recombinant CYP2D6; format: ADME
Cytochrome P450 2D6, sequence (P10635 whole entry): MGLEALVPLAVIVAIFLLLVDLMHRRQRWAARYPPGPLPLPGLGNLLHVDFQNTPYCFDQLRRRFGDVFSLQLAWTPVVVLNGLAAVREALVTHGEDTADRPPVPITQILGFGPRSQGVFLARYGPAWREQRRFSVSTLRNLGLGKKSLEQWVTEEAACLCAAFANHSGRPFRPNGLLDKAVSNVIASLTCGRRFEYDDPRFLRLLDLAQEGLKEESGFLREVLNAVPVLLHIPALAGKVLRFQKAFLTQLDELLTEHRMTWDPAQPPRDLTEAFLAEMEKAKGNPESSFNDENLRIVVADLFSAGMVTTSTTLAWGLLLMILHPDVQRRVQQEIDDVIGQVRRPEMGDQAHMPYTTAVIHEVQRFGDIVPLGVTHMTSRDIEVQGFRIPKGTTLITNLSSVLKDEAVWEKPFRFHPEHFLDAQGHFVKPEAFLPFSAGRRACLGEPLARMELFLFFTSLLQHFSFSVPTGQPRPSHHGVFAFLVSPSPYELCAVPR

[23] = Half life in rat at 10 mg/kg; format: ADME, organism-based; parameters: dose 10 mg/kg; details: in vivo
[24] = test system: Liver microsomes; assay: Metabolic stability in human liver microsomes assessed as CYP3A4-mediated glutathione adduct formation by glutathione conjugation assay; format: ADME, Microsome
[25] = Metabolic stability in human liver microsomes assessed as compound remaining after 10 mins; format: ADME, Microsome; details: read-out: Stability
[26] = test system: Rattus norvegicus; assay: Antiallodynic activity against chronic constriction injury cold allodynia in rat assessed as inhibition of cold hypersensitivity at 10 mg/kg, po measured after 2 hrs post dosing; format: functional, organism-based; parameters: dose 10 mg/kg
[27] = target: T2, Cytochrome P450 2C19; assay: Inhibition of CYP2C19 in human liver microsomes; format: ADME, Microsome

CS(=O)(=O)N1CCC(/C=C/c2nc3cc(-c4ccccc4C(F)(F)F)ccc3[nH]2)CC1
inhibition [1]: 14% | remaining at 10 min [2]: 75%

FC(F)(F)c1ccccc1-c1ccc2[nH]c(/C=C/C3CCCCC3)nc2c1
ED50 [3]: 6.4 mg/kg | inhibition [3]: Dose-dependent effect | IC50 [4]: 3.5 µM | IC50 [5]: 15 nM | IC50 [6]: 3.5 µM | remaining at 10 min [7]: 58% | IC50 [8]: > 10 µM | bioavailability [9]: 14% | Tmax [10]: 1.6 h | clearance [11]: 22 mL/min/kg | IC50 [12]: 20 nM | Activity [13]: Active | inhibition in vivo at 10 mg/kg [14]: 90% | Vd [15]: 9.5 L/kg | remaining at 10 min [2]: 20% | IC50 [16]: > 10 µM | inhibition at 3.3 µM [17]: 62% | IC50 [18]: 11 nM | IC50 [19]: > 30 µM | Cmax [20]: 225 ng/mL | inhibition in vivo at 30 mg/kg [21]: 90% | IC50 [22]: > 10 µM | half-life [23]: 174 min | Stability [24]: Stable | remaining at 10 min [25]: 85% | Activity [26]: Active | IC50 [27]: > 30 µM

Clc1ccccc1-c1ccc2[nH]c(/C=C/C3CCCCC3)nc2c1
remaining at 10 min [7]: 39% | IC50 [18]: 8.9 nM | remaining at 10 min [25]: 71%

Fc1cccc(C(F)(F)F)c1-c1ccc2[nH]c(/C=C/C3CCCCC3)nc2c1
remaining at 10 min [7]: 66% | remaining at 10 min [2]: 42% | IC50 [18]: 8.6 nM | remaining at 10 min [25]: 67%

FC1(F)CCC(/C=C/c2nc3cc(-c4ccccc4C(F)(F)F)ccc3[nH]2)CC1
remaining at 10 min [7]: 100% | remaining at 10 min [2]: 39% | IC50 [18]: 21 nM | remaining at 10 min [25]: 47%

O=S1(=O)CCC(/C=C/c2nc3cc(-c4ccccc4C(F)(F)F)ccc3[nH]2)CC1
inhibition [1]: 63% | remaining at 10 min [7]: 74% | remaining at 10 min [2]: 60% | remaining at 10 min [25]: 91%

Cc1ccccc1-c1ccc2[nH]c(/C=C/C3CCCCC3)nc2c1
remaining at 10 min [7]: 15% | remaining at 10 min [2]: 13% | IC50 [18]: 7.1 nM | remaining at 10 min [25]: 77%

FC(F)(F)c1cccnc1-c1ccc2[nH]c(/C=C/C3CCCCC3)nc2c1
remaining at 10 min [7]: 72% | remaining at 10 min [2]: 42% | IC50 [18]: 38 nM | remaining at 10 min [25]: 90%

CN1CCC(/C=C/c2nc3cc(-c4ccccc4C(F)(F)F)ccc3[nH]2)CC1
inhibition [1]: 1%

CC(=O)N1CCC(/C=C/c2nc3cc(-c4ccccc4C(F)(F)F)ccc3[nH]2)CC1
inhibition [1]: 1% | remaining at 10 min [7]: 85% | remaining at 10 min [2]: 100% | remaining at 10 min [25]: 100%

FC(F)(F)Oc1ccccc1-c1ccc2[nH]c(/C=C/C3CCCCC3)nc2c1
remaining at 10 min [7]: 91% | remaining at 10 min [25]: 71%

FC(F)(F)Oc1ccccc1-c1ccc2[nH]c(/C=C/C3CCCC3)nc2c1
remaining at 10 min [7]: 71% | IC50 [18]: 110 nM | remaining at 10 min [25]: 84%

C(=C\C1CCCCC1)/c1nc2cc(-c3ccccc3)ccc2[nH]1
IC50 [18]: 110 nM

FC(F)(F)c1ccccc1-c1ccc2[nH]c(/C=C/C3CCSCC3)nc2c1
remaining at 10 min [7]: 6% | remaining at 10 min [2]: 8% | remaining at 10 min [25]: 67%

FC(F)(F)c1ccccc1-c1ccc2[nH]c(/C=C/C3CCOCC3)nc2c1
remaining at 10 min [7]: 79% | remaining at 10 min [2]: 51% | IC50 [18]: 7.1 nM | remaining at 10 min [25]: 93%

COc1ccccc1-c1ccc2[nH]c(/C=C/C3CCCCC3)nc2c1
remaining at 10 min [7]: 10% | IC50 [18]: 8.9 nM | remaining at 10 min [25]: 62%

Fc1ccccc1-c1ccc2[nH]c(/C=C/C3CCCCC3)nc2c1
remaining at 10 min [7]: 34% | remaining at 10 min [2]: 75% | IC50 [18]: 21 nM | remaining at 10 min [25]: 98%

CC1(/C=C/c2nc3cc(-c4ccccc4C(F)(F)F)ccc3[nH]2)CCC(F)(F)CC1
remaining at 10 min [7]: 84% | remaining at 10 min [2]: 28% | IC50 [18]: 8.9 nM | remaining at 10 min [25]: 97%

FC(F)(F)c1cccc(C(F)(F)F)c1-c1ccc2[nH]c(/C=C/C3CCCCC3)nc2c1
remaining at 10 min [7]: 44% | remaining at 10 min [2]: 61% | IC50 [18]: 12.3 nM | remaining at 10 min [25]: 56%

FC(F)(F)c1ccccc1-c1ccc2[nH]c(/C=C/C3CCNCC3)nc2c1
inhibition [1]: 16% | remaining at 10 min [7]: 86% | remaining at 10 min [2]: 98% | remaining at 10 min [25]: 99%

CC1(/C=C/c2nc3cc(-c4ccccc4C(F)(F)F)ccc3[nH]2)CCOCC1
remaining at 10 min [7]: 20% | remaining at 10 min [2]: 35% | IC50 [18]: 8.9 nM | remaining at 10 min [25]: 62%
